Measurements: PubChem BioAssay (NCI)
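48-hour exposure; five concentrations; linearly interpolated endpoints. GI50 is the concentration that inhibits growth by half. TGI: concentration producing complete growth inhibition.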

Columns and labels:
Test in all cases: NCI anticancer screen, dose series, 48 h
MALME-3M melanoma = system: MALME-3M melanoma
UACC-257 melanoma = system: UACC-257 melanoma
OVCAR-8 ovarian = system: OVCAR-8 ovarian
HOP-92 NSCLC = system: HOP-92 NSCLC
LOX IMVI melanoma = system: LOX IMVI melanoma
EKVX NSCLC = system: EKVX NSCLC
MOLT-4 leukemia = system: MOLT-4 leukemia
SF-295 CNS = system: SF-295 CNS
UO-31 renal = system: UO-31 renal
A498 renal = system: A498 renal

SMILES	GI50 (MALME-3M melanoma) [µM]	TGI (MALME-3M melanoma) [µM]	GI50 (UACC-257 melanoma) [µM]	TGI (UACC-257 melanoma) [µM]	GI50 (OVCAR-8 ovarian) [µM]	TGI (OVCAR-8 ovarian) [µM]	GI50 (HOP-92 NSCLC) [µM]	TGI (HOP-92 NSCLC) [µM]	GI50 (LOX IMVI melanoma) [µM]	TGI (LOX IMVI melanoma) [µM]	GI50 (EKVX NSCLC) [µM]	TGI (EKVX NSCLC) [µM]	GI50 (MOLT-4 leukemia) [µM]	TGI (MOLT-4 leukemia) [µM]	GI50 (SF-295 CNS) [µM]	TGI (SF-295 CNS) [µM]	GI50 (UO-31 renal) [µM]	TGI (UO-31 renal) [µM]	GI50 (A498 renal) [µM]	TGI (A498 renal) [µM]
CCC1(NC(=O)c2cc(F)c(F)c(F)c2F)C(=O)NC(=O)N(C(C)C)C1=O (centres undefined)	24.9	76.3	32.1	> 100	34.6	> 100	17.4	63.7	16.7	54.5	24.6	97	22.6	78.8	27.4	87.3	> 100	> 100	23.5	53
O=C(N/C(=C\c1ccc(/C=C(\NC(=O)c2ccccc2)c2nc3ccccc3s2)cc1)c1nc2ccccc2s1)c1ccccc1	–	25.2	–	17	–	5.51	–	25.6	–	13.3	–	14.5	–	26.7	–	16.1	–	10.7	–	32.5
Nc1ccc(C(OC(=O)c2cc3ccccc3c(Cc3c(O)c(C(=O)OC(c4ccc(N)cc4)(c4ccc(N)cc4)c4ccc(N)cc4)cc4ccccc34)c2O)(c2ccc(N)cc2)c2ccc(N)cc2)cc1	1.94	20.1	0.426	5.96	0.388	36.6	1.15	5.86	1.41	43.4	2.37	> 100	4.33	86.1	0.475	> 100	3.66	63.4	0.548	5.25
NCCCN1CCN(CCCNc2nc3ccccc3c3[nH]c4ccccc4c23)CC1	2.3	4.96	2.51	5.72	0.131	3.88	0.346	2.1	0.409	1.81	1.31	6.22	0.155	4.02	0.474	1.83	0.771	11.8	1.62	3.93
C=C(CNC(=O)c1ccccc1)c1ccc(C(=O)Nc2ccccc2N)cc1	2	> 100	3.62	23.6	5.61	> 100	1.15	> 100	6.1	73.2	> 100	> 100	1.49	> 100	12.5	> 100	2.78	> 100	1.37	7.58
Cc1c(-c2nnc(-c3ccccc3)o2)c(=O)n(-c2ccccc2)n1C	–	> 100	–	> 100	–	> 100	–	> 100	–	> 100	–	> 100	–	> 100	–	> 100	–	> 100	–	> 100
C=C1C(OC/C=C/COC2O[C@@H]3O[C@@]4(C)CC[C@H]5[C@H](C)CC[C@@H](C2=C)[C@@]35OO4)O[C@@H]2O[C@@]3(C)CC[C@H]4[C@H](C)CC[C@@H]1[C@@]24OO3 (some centres undefined)	0.301	18.4	4.96	36	1.96	> 36.6	1.14	36.3	0.14	2.09	11.5	31.9	0.309	> 100	–	2.19	2.23	> 39.4	26	> 100
Cc1ccc2nc(-c3ccc(N)c4ccccc34)[nH]c2c1	5.85	27.3	9.5	34.5	1.31	16.9	2.62	49.1	0.0801	15.2	0.185	> 71.5	1.36	17.3	0.716	9.53	0.437	36.4	0.0953	16.7
Clc1cc(-c2ccccc2)nc2ccccc12	–	> 100	–	> 100	–	> 100	–	> 100	–	> 100	–	> 100	–	54.6	–	> 100	–	> 100	–	94.3
